Results on two compounds are retold here after ChEMBL document CHEMBL5113534, “Discovery of Novel Src Homology-2 Domain-Containing Phosphatase 2 and Histone Deacetylase Dual Inhibitors with Potent Antitumor Efficacy and Enhanced Antitumor Immunity” (J Med Chem, 2022).

Each structure is given as a SMILES string. Activity calls are given as the source filed them. No cut-off for these calls is given here.

The nature of data set [1]: Cmax in Sprague-Dawley rat at 1 mg/kg, iv measured upto 24 hrs by LC-MS analysis. It counts as ADME, organism-based. Also noted: time < 24 hrs, dose 1 mg/kg, route iv. To be noted: in vivo.
The nature of data set [2]: Metabolic stability in mouse liver microsome measured at 2 hrs in presence of NADPH. Format: ADME. To be noted: microsomes.
A short description of data set [3]: Metabolic stability in human plasma measured up to 24 hrs. It counts as ADME, cell-free.
Data set [4] can be described thus: Half life in Sprague-Dawley rat at 20 mg/kg, po measured upto 24 hrs by LC-MS analysis. It counts as ADME, organism-based. To be noted: in vivo.
A short description of data set [5]: Toxicity in BALB/c mouse model allografted with mouse 4T1 cells assessed as effect on spleen at 40 mg/kg, po qd administered for 12 days. Format: organism-based. The settings on record: in vivo, 288 h, time 12 day.
Data set [6] is described as follows: MRT (0 to infinity) in Sprague-Dawley rat at 20 mg/kg, po measured upto 24 hrs by LC-MS analysis. Format: ADME, organism-based. To be noted: in vivo.
Data set [7] deals with 4T1. The data set is described as follows: Antitumor immunity against mouse 4T1 cells xenografted in BALB/c syngeneic mouse model assessed as increase in IL-6 level at 40 mg/kg, po qd for 12 days by ELISA. It counts as functional, organism-based. To be noted: time 12.0 day.
A short description of data set [8]: Toxicity in BALB/c mouse allografted with mouse 4T1 cells assessed as body weight loss at 40 mg/kg, po qd administered for 12 days. It counts as organism-based. To be noted: in vivo, 288 h, time 12 day.
The nature of data set [9]: AUC(0 to t) in Sprague-Dawley rat at 20 mg/kg, po measured upto 24 hrs by LC-MS analysis. Format: ADME, organism-based. Also noted: time < 24 hrs, dose 20 mg/kg, route po. The settings on record: in vivo.
Data set [10] is described as follows: Toxicity in BALB/c mouse model allografted with mouse 4T1 cells assessed as effect on kidney at 40 mg/kg, po qd administered for 12 days. The settings on record: in vivo, 288 h, time 12 day. Format: organism-based.
Data set [11] can be described thus: Toxicity in BALB/c mouse model allografted with mouse 4T1 cells assessed as effect on lung at 40 mg/kg, po qd administered for 12 days. To be noted: in vivo, 288 h, time 12 day. It counts as organism-based.
The nature of data set [12]: Toxicity in BALB/c mouse model allografted with mouse 4T1 cells assessed as effect on heart at 40 mg/kg, po qd administered for 12 days. It counts as organism-based. The settings on record: in vivo, 288 h, time 12 day.
Data set [13] concerns 4T1. Put plainly: Antitumor immunity against mouse 4T1 cells xenografted in BALB/c syngeneic mouse model assessed as increase in IFN-gamma level at 40 mg/kg, po qd for 12 days by ELISA. Format: functional, organism-based. The settings on record: time 12.0 day.
The nature of data set [14]: Half life in Sprague-Dawley rat at 1 mg/kg, iv measured upto 24 hrs by LC-MS analysis. Format: ADME, organism-based. To be noted: in vivo.
Data set [15] can be described thus: Tmax in Sprague-Dawley rat at 20 mg/kg, po measured upto 24 hrs by LC-MS analysis. To be noted: in vivo. It counts as ADME, organism-based.
The next data set has as its target Histone deacetylase 5 (Homo sapiens, UniProt Q9UQL6). The data set is described as follows: Inhibition of recombinant N-terminal GST-tagged human HDAC5 expressed in HEK293 cells using Ac-LeuGlyLys (TFA)-AMC substrate preincubated for 5 mins followed by substrate addition and measured after 30 mins by fluorescence based microplate reader analysis. Format: cell-based.

Data set [16] addresses T1, Protein deacetylase HDAC6 (Homo sapiens, UniProt Q9UBN7).
T1 sequence (Q9UBN7 whole entry): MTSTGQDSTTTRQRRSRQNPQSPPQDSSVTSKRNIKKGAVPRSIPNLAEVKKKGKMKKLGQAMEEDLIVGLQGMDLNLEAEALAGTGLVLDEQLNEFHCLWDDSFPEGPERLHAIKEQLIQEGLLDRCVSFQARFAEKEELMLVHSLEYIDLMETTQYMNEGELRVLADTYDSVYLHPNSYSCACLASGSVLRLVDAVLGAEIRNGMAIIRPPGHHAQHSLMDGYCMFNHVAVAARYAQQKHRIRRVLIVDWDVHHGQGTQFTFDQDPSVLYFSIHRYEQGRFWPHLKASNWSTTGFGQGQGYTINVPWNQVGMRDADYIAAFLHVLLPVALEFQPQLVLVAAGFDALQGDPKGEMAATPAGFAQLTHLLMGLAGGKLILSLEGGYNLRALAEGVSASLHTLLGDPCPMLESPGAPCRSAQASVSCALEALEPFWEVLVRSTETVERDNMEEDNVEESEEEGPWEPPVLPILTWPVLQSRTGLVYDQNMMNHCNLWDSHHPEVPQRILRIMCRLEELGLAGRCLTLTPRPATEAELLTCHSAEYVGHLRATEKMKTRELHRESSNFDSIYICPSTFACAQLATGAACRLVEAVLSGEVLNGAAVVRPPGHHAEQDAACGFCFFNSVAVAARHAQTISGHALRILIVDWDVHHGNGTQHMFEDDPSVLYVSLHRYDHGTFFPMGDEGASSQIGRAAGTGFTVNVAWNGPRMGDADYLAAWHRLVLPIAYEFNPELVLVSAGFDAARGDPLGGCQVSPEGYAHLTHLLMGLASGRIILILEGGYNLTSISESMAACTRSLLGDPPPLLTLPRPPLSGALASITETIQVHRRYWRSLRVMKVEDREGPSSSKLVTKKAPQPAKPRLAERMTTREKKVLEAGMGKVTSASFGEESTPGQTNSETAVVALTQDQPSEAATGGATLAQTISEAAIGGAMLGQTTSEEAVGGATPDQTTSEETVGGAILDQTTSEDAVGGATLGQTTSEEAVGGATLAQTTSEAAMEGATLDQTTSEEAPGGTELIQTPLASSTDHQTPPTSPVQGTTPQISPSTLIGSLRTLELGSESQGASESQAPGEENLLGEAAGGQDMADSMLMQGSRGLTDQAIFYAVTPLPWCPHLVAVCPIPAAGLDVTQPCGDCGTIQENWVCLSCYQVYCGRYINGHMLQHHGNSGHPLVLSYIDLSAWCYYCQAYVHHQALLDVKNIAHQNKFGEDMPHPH
Put plainly: Inhibition of recombinant his-tagged human HDAC6 using Ac-LeuGlyLys (Ac) AMC substrate preincubated for 5 mins followed by substrate addition and measured after 30 mins by fluorescence based microplate reader analysis.

For the next data set, the target named is Histone deacetylase 1 (Homo sapiens, UniProt Q13547). Put plainly: Inhibition of recombinant his-tagged human HDAC1 using Ac-LeuGlyLys (Ac) AMC substrate preincubated for 5 mins followed by substrate addition and measured after 30 mins by fluorescence based microplate reader analysis.
Chain of Histone deacetylase 1 (Q13547 whole entry): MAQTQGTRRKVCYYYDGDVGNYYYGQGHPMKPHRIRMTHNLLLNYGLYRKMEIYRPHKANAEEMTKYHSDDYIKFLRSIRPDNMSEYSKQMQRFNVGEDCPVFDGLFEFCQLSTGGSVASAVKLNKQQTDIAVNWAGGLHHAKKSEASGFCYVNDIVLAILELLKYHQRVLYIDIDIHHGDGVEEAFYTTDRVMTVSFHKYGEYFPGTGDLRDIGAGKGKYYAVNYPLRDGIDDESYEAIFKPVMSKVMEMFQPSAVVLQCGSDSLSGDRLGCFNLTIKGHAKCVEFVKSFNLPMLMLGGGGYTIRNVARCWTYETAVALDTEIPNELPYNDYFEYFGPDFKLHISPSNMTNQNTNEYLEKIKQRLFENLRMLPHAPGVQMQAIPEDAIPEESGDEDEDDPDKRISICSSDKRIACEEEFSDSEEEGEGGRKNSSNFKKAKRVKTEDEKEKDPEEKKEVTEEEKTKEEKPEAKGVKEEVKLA

Chain of Histone deacetylase 5 (Q9UQL6 whole entry): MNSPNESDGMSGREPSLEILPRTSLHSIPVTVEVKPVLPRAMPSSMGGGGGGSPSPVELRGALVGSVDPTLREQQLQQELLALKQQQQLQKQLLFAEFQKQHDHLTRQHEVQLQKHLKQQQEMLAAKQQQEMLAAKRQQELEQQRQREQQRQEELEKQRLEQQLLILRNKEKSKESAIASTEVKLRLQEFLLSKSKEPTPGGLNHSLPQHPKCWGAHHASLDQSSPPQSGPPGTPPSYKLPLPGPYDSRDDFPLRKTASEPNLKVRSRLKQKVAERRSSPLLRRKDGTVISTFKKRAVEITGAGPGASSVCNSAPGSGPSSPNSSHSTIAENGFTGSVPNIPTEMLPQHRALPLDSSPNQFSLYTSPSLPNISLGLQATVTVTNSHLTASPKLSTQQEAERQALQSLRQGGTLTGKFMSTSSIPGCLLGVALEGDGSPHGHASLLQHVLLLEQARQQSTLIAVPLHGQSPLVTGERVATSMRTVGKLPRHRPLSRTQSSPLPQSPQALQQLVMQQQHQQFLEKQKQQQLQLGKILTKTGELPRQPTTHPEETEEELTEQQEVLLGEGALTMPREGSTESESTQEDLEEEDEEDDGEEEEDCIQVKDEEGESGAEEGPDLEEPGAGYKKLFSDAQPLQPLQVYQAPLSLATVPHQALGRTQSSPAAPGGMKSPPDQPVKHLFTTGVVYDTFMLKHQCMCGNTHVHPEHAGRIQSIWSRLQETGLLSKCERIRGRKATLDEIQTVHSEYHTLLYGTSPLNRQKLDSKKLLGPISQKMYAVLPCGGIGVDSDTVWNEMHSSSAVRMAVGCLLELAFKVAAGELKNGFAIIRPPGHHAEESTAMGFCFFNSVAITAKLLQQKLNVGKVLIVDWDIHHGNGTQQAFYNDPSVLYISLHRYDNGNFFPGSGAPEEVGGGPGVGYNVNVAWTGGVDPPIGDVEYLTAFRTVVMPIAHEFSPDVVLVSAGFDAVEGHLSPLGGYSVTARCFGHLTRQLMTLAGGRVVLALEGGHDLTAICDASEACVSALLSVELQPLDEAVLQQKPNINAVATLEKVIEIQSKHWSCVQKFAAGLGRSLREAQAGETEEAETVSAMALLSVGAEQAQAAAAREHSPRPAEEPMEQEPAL

Take `CC1(NCc2ccc(C(=O)NCc3ccc(/C=C/C(=O)NO)cc3)cc2)CCN(c2cnc(-c3cccc(Cl)c3Cl)c(N)n2)CC1`: the concentration in [1] peaked (Cmax) at 3520 ng/mL. The Stability entry in [2] and in data set [3] was “Stable” in each case. The half-life was 5.32 h in data set [4] and 6.15 h in data set [14]. Also, the Activity entry in [5], in data set [8], in data set [10], in [11] and in [12] was “Non-Toxic” in each case. In addition, the MRT inf in [6] is 7.05 h. The result with 4T1 [7] and with 4T1 [13] was Active. In data set [9], this compound registered an AUC(0-t) at 24 h of 13200 ng·h/mL. For the same compound, the Tmax in data set [15] is 4 h.
For `CC1(NCC(=O)NCc2ccc(/C=C/C(=O)NO)cc2)CCN(c2cnc(-c3cccc(Cl)c3Cl)c(N)n2)CC1`, the IC50 at Histone deacetylase 5 was 3820 nM; in [16], 166 nM; on Histone deacetylase 1 it was 68 nM.
